Measurements published in article PMC10051656, “Phenylpyrazolone-1,2,3-triazole Hybrids as Potent Antiviral Agents with Promising SARS-CoV-2 Main Protease Inhibition Potential” (Pharmaceuticals, 2023).
Several values for one entry are separate records, joined by “and”; a condition that tells them apart may be missing. Equal entries are not always repeated. Where two headings read alike, the source gives them in different places.

What was measured:
[1] = MTT cell viability / cytotoxicity in Vero E6 cells; design: cytotoxicity to Vero E6 cells: dose or concentration left out as unconfirmed; conditions: African green monkey
[2] = target: SARS-CoV-2 Main protease (Severe acute respiratory syndrome coronavirus 2, UniProt P0DTD1); assay: biochemical
[3] = tested on: SARS-CoV-2; assay: microbe, parasite or virus in culture; type: cell-based; conditions: for API Value: ratio of 10 μM inhibition % of tested drug to the reference remdesivir
[4] = tested on: SARS-CoV Main protease; conditions: cited from earlier work
[5] = tested on: Vero E6 cells; assay: MTT cell viability / cytotoxicity in Vero E6 cells; design: cytotoxicity to Vero E6 cells: dose or concentration left out as unconfirmed; conditions: for IC50: read-out: Cytotoxicity (Vero E6) (IC50), Vero E6 cells, MTT test
[6] = tested on: Main protease of MERS-CoV; conditions: cited from earlier work
[7] = Cytotoxicity (Vero E6) (IC50, μM), Vero E6 cells, MTT test
[8] = triplicate readings with SE, read-out: IC50 (μM) ± SE
[9] = Severe acute respiratory syndrome coronavirus 2, Vero C1008, 1 μM, infected Vero E6 cells, MOI 0.01, read-out: Anti-SARS-CoV-2 Effect Assay (%) 1 μM
[10] = Severe acute respiratory syndrome coronavirus 2, Vero C1008, 10 μM, infected Vero E6 cells, MOI 0.01, read-out: Anti-SARS-CoV-2 Effect Assay (%) 10 μM

SMILES	IC50 [1, 7]	IC50 [2, 8]	inhibition at 1 µM [3, 9]	inhibition at 10 µM [3, 10]	API Value [3]	also measured
CC1=NN(c2ccc(Cl)cc2)C(=O)/C1=C\c1ccc(OCc2cn(-c3ccc(Cl)cc3)nn2)cc1 [6f]	51.4 ± 3.9 µM	144 ± 6.9 µM	1.54 ± 0.089%	30.2 ± 0.31%	0.31	–
COc1ccc(CNC(=O)Cn2cc(COc3ccc(/C=C4\C(=O)N(c5ccc(Cl)cc5)N=C4C)cc3)nn2)cc1 [6p, (Z)-2-(4-((4-((1-(4-Chlorophenyl)-3-methyl-5-oxo-1H-pyrazol-4(5H)-ylidene)methyl)phenoxy)methyl)-1H-1,2,3-triazol-1-yl)-N-(4-methoxybenzyl)acetamide]	20.1 ± 1.5 µM	23.7 ± 1.1 µM	9.5 ± 0.11%	~50%	0.54	–
CC(C)CC(NC(=O)OCc1ccccc1)C(=O)NC(CC1CCNC1=O)C(O)S(=O)(=O)O (centres unmarked) [GC-376, reference compound]	41.2 ± 1.1 µM	–	78.96 ± 0.67%	92.9 ± 1.15%	0.99	–
Cc1cccc(C)c1OCC(=O)N[C@@H](Cc1ccccc1)[C@@H](O)C[C@H](Cc1ccccc1)NC(=O)[C@H](C(C)C)N1CCCNC1=O [lopinavir, reference compound]	–	82.2 µM	–	–	–	–
O=C(O)c1ccc(/C=C2\C(=O)N(c3ccc(F)cc3)N=C2c2ccccc2)cc1 [compound 8]	–	–	–	–	–	IC50 [4]: 6.8 µM
CC1=NN(c2ccc(Cl)cc2)C(=O)/C1=C\c1ccc(OCc2cn(CC(=O)Nc3ccc(C)c(F)c3)nn2)cc1 [6m, (Z)-2-(4-((4-((1-(4-Chlorophenyl)-3-methyl-5-oxo-1H-pyrazol-4(5H)-ylidene)methyl)phenoxy)methyl)-1H-1,2,3-triazol-1-yl)-N-(3-fluoro-4-methylphenyl)acetamide]	189 ± 14 µM	25.7 ± 0.4 µM	9.55 ± 0.02%	~50%	0.49	–
CC1=NN(c2ccc(Cl)cc2)C(=O)/C1=C\c1ccc(OCc2cn(CC(=O)NCc3ccc(F)cc3)nn2)cc1 [6q, (Z)-2-(4-((4-((1-(4-Chlorophenyl)-3-methyl-5-oxo-1H-pyrazol-4(5H)-ylidene)methyl)phenoxy)methyl)-1H-1,2,3-triazol-1-yl)-N-(4-fluorobenzyl)acetamide]	> 20 µM	3.16 µM and 7.55 µM	12.9 ± 0.03%	79%	0.84	IC50 [5]: 35.3 ± 2.7 µM
CC(C)(C)c1ccc(N2N=C(c3ccccc3)/C(=C/c3ccc(-c4cc(Cl)ccc4C(=O)O)o3)C2=O)cc1 [compound 10]	–	–	–	–	–	IC50 [4]: 5.8 µM; IC50 [6]: 7.4 µM
CC1=NN(c2ccc(Cl)cc2)C(=O)/C1=C\c1ccc(OCc2cn(CC(=O)Nc3ccc([N+](=O)[O-])cc3)nn2)cc1 [6l, (Z)-2-(4-((4-((1-(4-Chlorophenyl)-3-methyl-5-oxo-1H-pyrazol-4(5H)-ylidene)methyl)phenoxy)methyl)-1H-1,2,3-triazol-1-yl)-N-(4-nitrophenyl)acetamide]	32.6 ± 2.5 µM	135 ± 6.5 µM	8.84 ± 0.11%	46.91 ± 0.28%	–	–
CC1=NN(c2ccc(Cl)cc2)C(=O)/C1=C\c1ccc(OCc2cn(CC(=O)NCc3ccc(C)cc3)nn2)cc1 [6o, (Z)-2-(4-((4-((1-(4-Chlorophenyl)-3-methyl-5-oxo-1H-pyrazol-4(5H)-ylidene)methyl)phenoxy)methyl)-1H-1,2,3-triazol-1-yl)-N-(4-methylbenzyl)acetamide]	262 ± 20 µM	43.3 ± 2.1 µM	12.23 ± 0.1%	54.1 ± 0.61%	0.56	–
CC1=NN(c2ccc(Cl)cc2)C(=O)/C1=C\c1ccc(OCc2cn(-c3ccc(F)cc3)nn2)cc1 [6d]	172 ± 13 µM	42.4 ± 3.8 µM	7.38 ± 0.007%	55.47 ± 0.27%	0.60	–
CC1=NN(c2ccccc2)C(=O)/C1=C\c1ccc(OCc2cn(-c3ccc(C(=O)O)cc3)nn2)cc1 [6b]	–	> 200 µM	–	–	–	melting point: 205 to 206 °C
CC1=NN(c2ccc(Cl)cc2)C(=O)/C1=C\c1ccc(OCc2cn(CC(=O)Nc3ccc(C(=O)O)cc3)nn2)cc1 [6i]	22.1 µM	3.17 µM and 7.55 µM and 3.1 µM and 3.16 µM	21.86 ± 0.09%	64%	0.67	IC50 [5]: 21.1 ± 1.6 µM
CC1=NN(c2ccccc2)C(=O)/C1=C\c1ccc(OCc2cn(CC(=O)Nc3ccc(F)cc3)nn2)cc1 [6k, (Z)-N-(4-Fluorophenyl)-2-(4-((4-((3-methyl-5-oxo-1-phenyl-1H-pyrazol-4(5H)-ylidene)methyl)phenoxy)methyl)-1H-1,2,3-triazol-1-yl)acetamide]	–	> 200 µM	–	–	–	IC50 ([2]; unit inferred, read-out: IC50 (numbers printed in the chart of Figure 5)): 200 µM; melting point: 201 to 203 °C
O=C(O)c1cccc(N2N=C(c3ccccc3)/C(=C/c3ccc(-c4ccccc4)o3)C2=O)c1 [compound 9]	–	–	–	–	–	IC50 [4]: 6.4 µM; IC50 [6]: 5.8 µM
CC1=NN(c2ccc(Cl)cc2)C(=O)/C1=C\c1ccc(OCc2cn(-c3ccc(C(=O)O)cc3)nn2)cc1 [6a]	17.1 ± 13 µM	76 µM and 76.9 µM	10.8 ± 0.06%	19.3%	0.21	Anti-SARS-CoV-2 Effect Assay (%) 10 μM ([3]; 10 μM, infected Vero E6 cells, MOI 0.01): 19.27 ± 0.51%
CC1=NN(c2ccc(Cl)cc2)C(=O)/C1=C\c1ccc(OCc2cn(CC(=O)NCc3ccc(Cl)cc3)nn2)cc1 [6n, (Z)-N-(4-Chlorobenzyl)-2-(4-((4-((1-(4-chlorophenyl)-3-methyl-5-oxo-1H-pyrazol-4(5H)-ylidene)methyl)phenoxy)methyl)-1H-1,2,3-triazol-1-yl)acetamide]	23.1 ± 1.8 µM	86.6 ± 4.1 µM	3.73 ± 0.01%	51.13 ± 0.14%	0.55	–
CCC(CC)COC(=O)[C@H](C)N[P@](=O)(OC[C@H]1O[C@@](C#N)(c2ccc3c(N)ncnn23)[C@H](O)[C@@H]1O)Oc1ccccc1 [REM, remdesivir, reference compound]	–	–	–	–	1.0	cytotoxicity to Vero E6 cells ([5]; positive control): no cytotoxicity; IC50 [1]: 61.8 ± 4.7 µM; inhibition at 1 µM ([3]; Severe acute respiratory syndrome coronavirus 2, Vero C1008, read-out: Anti-SARS-CoV-2 Effect Assay (%) 1 μM): 89.6 ± 0.98%; inhibition at 10 µM ([3]; Severe acute respiratory syndrome coronavirus 2, Vero C1008, read-out: Anti-SARS-CoV-2 Effect Assay (%) 10 μM): 93.3 ± 1.17%
CC1=NN(c2ccc(Cl)cc2)C(=O)/C1=C\c1ccc(OCc2cn(-c3ccc(Cl)c(Cl)c3)nn2)cc1 [6g]	235 ± 18 µM	200 ± 9.5 µM	12.23 ± 0.05%	38.74 ± 0.3%	0.41	–
CC1=NN(c2ccc(Cl)cc2)C(=O)/C1=C\c1ccc(OCc2cn(-c3ccc(C)c(F)c3)nn2)cc1 [6h]	33.7 ± 2.6 µM	5.08 ± 3.5 µM	15.5 ± 0.003%	64.2%	0.66	–
CC(=O)c1ccc(-n2cc(COc3ccc(/C=C4\C(=O)N(c5ccc(Cl)cc5)N=C4C)cc3)nn2)cc1 [6c]	92.1 ± 7 µM	81.1 ± 3.9 µM	4.46 ± 0.034%	24.5 ± 0.37%	0.26	–
CC1=NN(c2ccc(Cl)cc2)C(=O)/C1=C\c1ccc(OCc2cn(-c3ccc([N+](=O)[O-])cc3)nn2)cc1 [6e]	66.4 ± 5.1 µM	30.1 ± 1.4 µM	17.4 ± 0.19%	49.5 ± 1.01%	0.53	–
N#Cc1ccc(N2N=C(c3ccccc3)/C(=C/c3ccc(C(=O)O)cc3)C2=O)cc1 [compound 7]	–	–	–	–	–	IC50 [4]: 5.5 µM
CC1=NN(c2ccc(Cl)cc2)C(=O)/C1=C\c1ccc(OCc2cn(CC(=O)Nc3ccc(F)cc3)nn2)cc1 [6j, (Z)-2-(4-((4-((1-(4-Chlorophenyl)-3-methyl-5-oxo-1H-pyrazol-4(5H)-ylidene)methyl)phenoxy)methyl)-1H-1,2,3-triazol-1-yl)-N-(4-fluorophenyl)acetamide]	156 ± 12 µM	49.4 ± 2.4 µM	16.16 ± 0.03%	39.65 ± 0.25%	0.46	–
